Legend:
KRAS G12D = KRAS G12D (Homo sapiens, UniProt P01116, G12D); assay: GDP-GTP exchange assay (KRAS G12D); format: biochemical; conditions: bodipy-GDP/GppNHp exchange with SOS1; 4 h pre-incubation, 2 h reaction;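 further: one dagger IC50 up to 100 nM and two daggers above 100 nM up to 1 μM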
Procedure: (§1) The inhibitor potency of the exemplified compounds was determined in a fluorescence based guanine nucleotide exchange assay, which measures the exchange of bodipy-GDP (fluorescently labeled GDP) for GppNHp (Non-hydrolyzable GTP analog) to generate the active state of KRAS in the presence of SOS1 (guanine nucleotide exchange factor). Inhibitors were serially diluted in DMSO and a volume of 0.1 μL was transferred to the wells of a black low volume 384-well plate. 5 μL/well volume of bodipy-loaded KRAS G12D diluted to 2.5 nM in assay buffer (25 mM Hepes pH 7.5, 50 mM NaCl, 10 mM MgCl2 and 0.01% Brij-35) was added to the plate and pre-incubated with inhibitor for 4 h at r.t. Appropriate controls (enzyme with no inhibitor or with a G12D inhibitor) were included on the plate. The exchange was initiated by the addition of a 5 μL/well volume containing 1 mM GppNHp and 300 nM SOS1 in assay buffer. The 10 μL/well reaction concentration of the bodipy-loaded KRAS G12D, GppNHp, and SOS1 were 2.5 nM, 500 μM, and 150 nM, respectively. The reaction plates were incubated at r.t. for 2 h, a time estimated for complete GDP-GTP exchange in the absence of inhibitor. For the KRAS G12V mutant, similar guanine nucleotide exchange assays were used with 2.5 nM as final concentration for the bodipy loaded KRAS proteins and 3 h incubation after adding GppNHp-SOS1 mixture. A cyclic peptide described to selectively bind G12D mutant (Sakamoto et al., BBRC 484.3 (2017), 605-611) or internal compounds with confirmed binding were used as positive controls in the assay plates. Fluorescence intensities were measured on a PheraStar plate reader instrument (BMG Labtech) with excitation at 485 nm and emission at 520 nm.
(§2) Either GraphPad prism or Genedata Screener SmartFit was used to analyze the data. The IC50 values were derived by fitting the data to a four parameter logistic equation producing a sigmoidal dose-response curve with a variable Hill coefficient.
(§3) The symbol “⬆” indicates IC50 100 nM, “⬆⬆” indicates IC50 >100 nM but ≤1 μM; and “⬆⬆⬆” indicates IC50 is >1 μM but ≤5 μM, “⬆⬆⬆⬆” indicates IC50 is >5 μM but ≤10 μM. “NA” indicates IC50 not available.

KRAS G12V = KRAS G12V (Homo sapiens, UniProt P01116, G12V); assay: GDP-GTP exchange assay (KRAS G12V); format: biochemical; conditions: bodipy-GDP/GppNHp exchange with SOS1; 3 h incubation after GppNHp-SOS1;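 further: one dagger IC50 up to 100 nM and two daggers above 100 nM up to 1 μM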
Procedure: as §1, §2, §3

[1] = Caco2 assay (permeability, Papp A-B); format: in vitro ADME; conditions: human, Caco-2, absorptive direction (A-B), 50 μM test compound, 4% BSA in receiver
Procedure: Caco-2 cells are grown at 37° C. in an atmosphere of 5% CO2 in DMEM growth medium supplemented with 10% (v/v) fetal bovine serum, 1% (v/v) nonessential amino acids, penicillin (100 U/mL), and streptomycin (100 μg/mL). Confluent cell monolayers are subcultured every 7 days or 4 days for Caco-2 by treatment with 0.05% trypsin containing […]. Caco-2 cells are seeded in 96-well Transwell plates. The seeding density for Caco-2 cells is 14,000 cells/well. DMEM growth medium is replaced every other day after seeding. Cell monolayers are used for transport assays between 22 and 25 days for Caco-2 cells.
Cell culture medium is removed and replaced with HBSS. To measure the TEER, the HBSS is added into the donor compartment (apical side) and receiver compartment (basolateral side). The TEER is measured by using a REMS Autosampler to ensure the integrity of the cell monolayers. Caco-2 cell monolayers with TEER values 300 Ω·cm^2 are used for transport experiments. To determine the Papp in the absorptive direction (A-B), solution of test compound (50 μM) in HBSS is added to the donor compartment (apical side), while HBSS solution with 4% BSA is added to the receiver compartment (basolateral side). The apical volume was 0.075 mL, and the basolateral volume is 0.25 mL. The incubation period is 120 min. at 37° C. in an atmosphere of 5% CO2. At the end of the incubation period, samples from the donor and receiver sides are removed and an equal volume of MeCN is added for protein precipitation. The supernatants are collected after centrifugation (3000 rpm, Allegra X-14R Centrifuge from Beckman Coulter, Indianapolis, IN) for LCMS analysis. The permeability value is determined according to the equation:
Papp(cm/s)=(F*VD)/(SA*MD),
where the flux rate (F, mass/time) is calc. from the slope of cumulative amounts of compound of interest on the receiver side, SA is the surface area of the cell membrane, VD is the donor volume, and MD is the initial amount of the solution in the donor chamber.
The symbol “+” indicates a Caco-2 value of ≤0.5, “++” indicates a Caco-2 value of >0.5 but ≤1; and “+++” indicates a Caco-2 value of >1. “NA” indicates Caco-2 value not available.

Sequence of KRAS G12V (P01116 1-188 isoform P01116-2 G12V): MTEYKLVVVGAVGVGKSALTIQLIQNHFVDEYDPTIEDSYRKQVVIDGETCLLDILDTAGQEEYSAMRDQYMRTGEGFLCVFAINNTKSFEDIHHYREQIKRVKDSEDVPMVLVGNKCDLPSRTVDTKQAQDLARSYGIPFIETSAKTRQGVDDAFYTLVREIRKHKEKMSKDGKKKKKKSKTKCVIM
Sequence of KRAS G12D (P01116 1-188 isoform P01116-2 G12D): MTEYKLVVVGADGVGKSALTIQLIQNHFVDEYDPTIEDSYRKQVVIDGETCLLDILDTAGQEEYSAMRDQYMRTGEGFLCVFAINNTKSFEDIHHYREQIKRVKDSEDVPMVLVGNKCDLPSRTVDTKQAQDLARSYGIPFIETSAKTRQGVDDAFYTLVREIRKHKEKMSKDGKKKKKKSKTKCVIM

Structure (SMILES): Cc1nc2c(F)c(-c3cccc(Cl)c3Cl)c(CCC#N)cc2c2c1cc([C@H]1[C@H]3C[C@H](CN(c4cnn(C)c(=O)c4)C3)N1C(=O)C1CC1)n2[C@H]1[C@H]2CN[C@@H]1C2 (atropisomer, axis not shown; (Ra)) [Example 65, 3-((Ra)-1-((1R,4R,5S)-2-azabicyclo[2.1.1]hexan-5-yl)-2-((1S,5R,7R)-6-(cyclopropanecarbonyl)-3-(1-methyl-6-oxo-1,6-dihydropyridazin-4-yl)-3,6-diazabicyclo[3.2.1]octan-7-yl)-7-(2,3-dichlorophenyl)-6-fluoro-4-methyl-1H-pyrrolo[3,2-c]quinolin-8-yl)propanenitrile]
- G12D_exchange (KRAS_G12D exchange assay IC50) (KRAS G12D): †
- G12V_exchange (KRAS_G12V exchange assay IC50) (KRAS G12V): †
- Papp A→B at 120 min, 50 μM [1]: ≤ 5 nm/s

Structure (SMILES): Cc1cccnc1N1C[C@@H]2C[C@H](C1)N(C(=O)C1CC1)[C@H]2c1cc2c(C)nc3c(F)c(-c4cccc(Cl)c4Cl)c(CCC#N)cc3c2n1[C@H]1[C@H]2CN[C@@H]1C2 (atropisomer, axis not shown; (Ra)) [Example 48, 3-((Ra)-1-((1R,4R,5S)-2-azabicyclo[2.1.1]hexan-5-yl)-2-((1S,5R,7R)-6-(cyclopropanecarbonyl)-3-(3-methylpyridin-2-yl)-3,6-diazabicyclo[3.2.1]octan-7-yl)-7-(2,3-dichlorophenyl)-6-fluoro-4-methyl-1H-pyrrolo[3,2-c]quinolin-8-yl)propanenitrile]
- G12D_exchange (KRAS_G12D exchange assay IC50) (KRAS G12D): †
- G12V_exchange (KRAS_G12V exchange assay IC50) (KRAS G12V): †
- Papp A→B at 120 min, 50 μM [1]: 5 to 10 nm/s

Structure (SMILES): Cc1nc2c(F)c(-c3cccc(Cl)c3Cl)c(CCC#N)cc2c2c1cc([C@H]1[C@H]3C[C@H](CN(c4ncccn4)C3)N1C(=O)C1CC1)n2[C@H]1[C@H]2CN[C@@H]1C2 (atropisomer, axis not shown; (Ra)) [Example 33, 3-((Ra)-1-((1R,4R,5S)-2-azabicyclo[2.1.1]hexan-5-yl)-2-((1S,5R,7R)-6-(cyclopropanecarbonyl)-3-(pyrimidin-2-yl)-3,6-diazabicyclo[3.2.1]octan-7-yl)-7-(2,3-dichlorophenyl)-6-fluoro-4-methyl-1H-pyrrolo[3,2-c]quinolin-8-yl)propanenitrile]
- G12D_exchange (KRAS_G12D exchange assay IC50) (KRAS G12D): †
- G12V_exchange (KRAS_G12V exchange assay IC50) (KRAS G12V): †
- Papp A→B at 120 min, 50 μM [1]: ≤ 5 nm/s

Structure (SMILES): Cc1cc(N2C[C@@H]3C[C@H](C2)N(C(=O)C2CC2)[C@H]3c2cc3c(C)nc4c(F)c(-c5cccc(Cl)c5Cl)c(CCC#N)cc4c3n2[C@H]2[C@H]3CN[C@@H]2C3)cc(=O)o1 (atropisomer, axis not shown; (Ra)) [Example 80]
- G12D_exchange (KRAS_G12D exchange assay IC50) (KRAS G12D): †
- G12V_exchange (KRAS_G12V exchange assay IC50) (KRAS G12V): †
- Papp A→B at 120 min, 50 μM [1]: ≤ 5 nm/s

Structure (SMILES): Cc1nc2c(F)c(-c3cccc(Cl)c3Cl)c(CCC#N)cc2c2c1cc([C@H]1[C@H]3C[C@H](CN(c4cc(C(C)(F)F)ncn4)C3)N1C(=O)C1(F)CC1)n2[C@H]1[C@H]2CN[C@@H]1C2 (atropisomer, axis not shown; (Ra)) [Example 128, 3-((Ra)-1-((1R,4R,5S)-2-azabicyclo[2.1.1]hexan-5-yl)-7-(2,3-dichlorophenyl)-2-((1S,5R,7R)-3-(6-(1,1-difluoroethyl)pyrimidin-4-yl)-6-(1-fluorocyclopropane-1-carbonyl)-3,6-diazabicyclo[3.2.1]octan-7-yl)-6-fluoro-4-methyl-1H-pyrrolo[3,2-c]quinolin-8-yl)propanenitrile]
- G12V_exchange (KRAS_G12V exchange assay IC50) (KRAS G12V): †
- Papp A→B at 120 min, 50 μM [1]: ≤ 5 nm/s

Structure (SMILES): COC(=O)N1[C@@H]2C[C@@H](CN(c3ncc(OCC4CC4)cn3)C2)[C@@H]1c1cc2c(C)nc3c(F)c(-c4cccc(Cl)c4Cl)c(CCC#N)cc3c2n1[C@H]1[C@H]2CN[C@@H]1C2 (atropisomer, axis not shown; (Ra)) [Example 126, Methyl (1 S,5R,7R)-7-((Ra)-1-((1R,4R,5S)-2-azabicyclo[2.1.1]hexan-5-yl)-8-(2-cyanoethyl)-7-(2,3-dichlorophenyl)-6-fluoro-4-methyl-1H-pyrrolo[3,2-c]quinolin-2-yl)-3-(5-(cyclopropylmethoxy)pyrimidin-2-yl)-3,6-diazabicyclo[3.2.1]octane-6-carboxylate]
- G12V_exchange (KRAS_G12V exchange assay IC50) (KRAS G12V): †
- Papp A→B at 120 min, 50 μM [1]: ≤ 5 nm/s

— patent US20250195536A1, “BICYCLOOCTANE KRAS INHIBITORS” (Incyte Corporation, priority 2023, published 2025)
